According to BindingDB's records for doi:10.1016/j.bmcl.2009.09.017 (Pfizer, 2009):

Assay: Antagonist activity at P2Y12 receptor in human platelet rich plasma assessed as inhibition of ADP-induced platelet aggregation by light transmission aggregometry

Row | IC50 [nM] | SMILES
1 | 3000 | CCCCCOC(=O)N1CCN(C(=O)[C@H](CCC(=O)O)NC(=O)c2nc(-c3ccccc3)cc(N3CCC(N4CCOCC4)CC3)n2)CC1 [(S)-4-(4-(4-morpholinopiperidin-1-yl)-6-phenylpyrimidine-2-carboxamido)-5-oxo-5-(4-(pentyloxycarbonyl)piperazin-1-yl)pentanoic acid]
2 | 3800 | CCCCCOC(=O)N1CCN(C(=O)[C@H](CCC(=O)O)NC(=O)c2nc(OCC3CCN(C)CC3)cc(-c3ccccc3)n2)CC1 [(S)-4-(4-((1-methylpiperidin-4-yl)methoxy)-6-phenylpyrimidine-2-carboxamido)-5-oxo-5-(4-(pentyloxycarbonyl)piperazin-1-yl)pentanoic acid]
3 | > 10000 | CCCCCOC(=O)N1CCN(C(=O)[C@H](CCC(=O)O)NC(=O)c2nc(-c3ccccc3)cc(N3CCOCC3)n2)CC1 [(S)-4-(4-morpholino-6-phenylpyrimidine-2-carboxamido)-5-oxo-5-(4-(pentyloxycarbonyl)piperazin-1-yl)pentanoic acid]
4 | 3700 | CCCCCOC(=O)N1CCN(C(=O)[C@H](CCC(=O)O)NC(=O)c2cc(NC3CCN(C(C)C)CC3)nc(-c3ccccc3)n2)CC1 [(S)-4-(6-(1-isopropylpiperidin-4-ylamino)-2-phenylpyrimidine-4-carboxamido)-5-oxo-5-(4-(pentyloxycarbonyl)piperazin-1-yl)pentanoic acid]
5 | 15000 | CCCCCOC(=O)N1CCN(C(=O)[C@H](CCC(=O)O)NC(=O)c2cc(OCCN(CC)CC)nc(-c3ccccc3)n2)CC1 [(S)-4-(6-(2-(diethylamino)ethoxy)-2-phenylpyrimidine-4-carboxamido)-5-oxo-5-(4-(pentyloxycarbonyl)piperazin-1-yl)pentanoic acid]
6 | > 10000 | CCCCCOC(=O)N1CCN(C(=O)[C@H](CCC(=O)O)NC(=O)c2cc(SCCO)nc(-c3ccccc3)n2)CC1 [(S)-4-(6-(2-hydroxyethylthio)-2-phenylpyrimidine-4-carboxamido)-5-oxo-5-(4-(pentyloxycarbonyl)piperazin-1-yl)pentanoic acid]
7 | 7900 | CCCCCOC(=O)N1CCN(C(=O)[C@H](CCC(=O)O)NC(=O)c2cc(OCCOC)nc(-c3ccccc3)n2)CC1 [(S)-4-(6-(2-methoxyethoxy)-2-phenylpyrimidine-4-carboxamido)-5-oxo-5-(4-(pentyloxycarbonyl)piperazin-1-yl)pentanoic acid]
8 | 2600 | CCCCCOC(=O)N1CCN(C(=O)[C@H](CCC(=O)O)NC(=O)c2cc(NCCOC)nc(-c3ccccc3)n2)CC1 [(S)-4-(6-(2-methoxyethylamino)-2-phenylpyrimidine-4-carboxamido)-5-oxo-5-(4-(pentyloxycarbonyl)piperazin-1-yl)pentanoic acid]
9 | 2600 | CCCCCOC(=O)N1CCN(C(=O)[C@H](CCC(=O)O)NC(=O)c2cc(NCCCN(C)C)nc(-c3ccccc3)n2)CC1 [(S)-4-(6-(3-(dimethylamino)propylamino)-2-phenylpyrimidine-4-carboxamido)-5-oxo-5-(4-(pentyloxycarbonyl)piperazin-1-yl)pentanoic acid]
10 | 4100 | CCCCCOC(=O)N1CCN(C(=O)[C@H](CCC(=O)O)NC(=O)c2cc(N3CC(OCC)C3)nc(-c3ccccc3)n2)CC1 [(S)-4-(6-(3-ethoxyazetidin-1-yl)-2-phenylpyrimidine-4-carboxamido)-5-oxo-5-(4-(pentyloxycarbonyl)piperazin-1-yl)pentanoic acid]
11 | 3500 | CCCCCOC(=O)N1CCN(C(=O)[C@H](CCC(=O)O)NC(=O)c2cc(N3CC(O)C3)nc(-c3ccccc3)n2)CC1 [(S)-4-(6-(3-hydroxyazetidin-1-yl)-2-phenylpyrimidine-4-carboxamido)-5-oxo-5-(4-(pentyloxycarbonyl)piperazin-1-yl)pentanoic acid]
12 | 8700 | CCCCCOC(=O)N1CCN(C(=O)[C@H](CCC(=O)O)NC(=O)c2cc(OCCCN3CCOCC3)nc(-c3ccccc3)n2)CC1 [(S)-4-(6-(3-morpholinopropoxy)-2-phenylpyrimidine-4-carboxamido)-5-oxo-5-(4-(pentyloxycarbonyl)piperazin-1-yl)pentanoic acid]
13 | 1000 | CCCCCOC(=O)N1CCN(C(=O)[C@H](CCC(=O)O)NC(=O)c2cc(N3CCC(CC(=O)N4CCC4)CC3)nc(-c3ccccc3)n2)CC1 [(S)-4-(6-(4-(2-(azetidin-1-yl)-2-oxoethyl)piperidin-1-yl)-2-phenylpyrimidine-4-carboxamido)-5-oxo-5-(4-(pentyloxycarbonyl)piperazin-1-yl)pentanoic acid]
14 | 2600 | CCCCCOC(=O)N1CCN(C(=O)[C@H](CCC(=O)O)NC(=O)c2cc(N3CCC(CC(=O)N(CC)CC)CC3)nc(-c3ccccc3)n2)CC1 [(S)-4-(6-(4-(2-(diethylamino)-2-oxoethyl)piperidin-1-yl)-2-phenylpyrimidine-4-carboxamido)-5-oxo-5-(4-(pentyloxycarbonyl)piperazin-1-yl)pentanoic acid]
15 | 530 | CCCCCOC(=O)N1CCN(C(=O)[C@H](CCC(=O)O)NC(=O)c2cc(N3CCN(CC(=O)N(C)C)CC3)nc(-c3ccccc3)n2)CC1 [(S)-4-(6-(4-(2-(dimethylamino)-2-oxoethyl)piperazin-1-yl)-2-phenylpyrimidine-4-carboxamido)-5-oxo-5-(4-(pentyloxycarbonyl)piperazin-1-yl)pentanoic acid]
16 | 400 | CCCCCOC(=O)N1CCN(C(=O)[C@H](CCC(=O)O)NC(=O)c2cc(N3CCC(CCN(C)C)CC3)nc(-c3ccccc3)n2)CC1 [(S)-4-(6-(4-(2-(dimethylamino)ethyl)piperidin-1-yl)-2-phenylpyrimidine-4-carboxamido)-5-oxo-5-(4-(pentyloxycarbonyl)piperazin-1-yl)pentanoic acid]
17 | 1600 | CCCCCOC(=O)N1CCN(C(=O)[C@H](CCC(=O)O)NC(=O)c2cc(N3CCC(CC(=O)NCC)CC3)nc(-c3ccccc3)n2)CC1 [(S)-4-(6-(4-(2-(ethylamino)-2-oxoethyl)piperidin-1-yl)-2-phenylpyrimidine-4-carboxamido)-5-oxo-5-(4-(pentyloxycarbonyl)piperazin-1-yl)pentanoic acid]
18 | 1100 | CCCCCOC(=O)N1CCN(C(=O)[C@H](CCC(=O)O)NC(=O)c2cc(N3CCC(CC(=O)NC)CC3)nc(-c3ccccc3)n2)CC1 [(S)-4-(6-(4-(2-(methylamino)-2-oxoethyl)piperidin-1-yl)-2-phenylpyrimidine-4-carboxamido)-5-oxo-5-(4-(pentyloxycarbonyl)piperazin-1-yl)pentanoic acid]
19 | 620 | CCCCCOC(=O)N1CCN(C(=O)[C@H](CCC(=O)O)NC(=O)c2cc(N3CCC(CCN)CC3)nc(-c3ccccc3)n2)CC1 [(S)-4-(6-(4-(2-aminoethyl)piperidin-1-yl)-2-phenylpyrimidine-4-carboxamido)-5-oxo-5-(4-(pentyloxycarbonyl)piperazin-1-yl)pentanoic acid]
20 | 1300 | CCCCCOC(=O)N1CCN(C(=O)[C@H](CCC(=O)O)NC(=O)c2cc(N3CCC(OCCO)CC3)nc(-c3ccccc3)n2)CC1 [(S)-4-(6-(4-(2-hydroxyethoxy)piperidin-1-yl)-2-phenylpyrimidine-4-carboxamido)-5-oxo-5-(4-(pentyloxycarbonyl)piperazin-1-yl)pentanoic acid]
21 | 1400 | CCCCCOC(=O)N1CCN(C(=O)[C@H](CCC(=O)O)NC(=O)c2cc(N3CCC(OCCOC)CC3)nc(-c3ccccc3)n2)CC1 [(S)-4-(6-(4-(2-methoxyethoxy)piperidin-1-yl)-2-phenylpyrimidine-4-carboxamido)-5-oxo-5-(4-(pentyloxycarbonyl)piperazin-1-yl)pentanoic acid]
22 | 2200 | CCCCCOC(=O)N1CCN(C(=O)[C@H](CCC(=O)O)NC(=O)c2cc(N3CCN(CCOC)CC3)nc(-c3ccccc3)n2)CC1 [(S)-4-(6-(4-(2-methoxyethyl)piperazin-1-yl)-2-phenylpyrimidine-4-carboxamido)-5-oxo-5-(4-(pentyloxycarbonyl)piperazin-1-yl)pentanoic acid]
23 | 6300 | CCCCCOC(=O)N1CCN(C(=O)[C@H](CCC(=O)O)NC(=O)c2cc(N3CCC(CCOC)CC3)nc(-c3ccccc3)n2)CC1 [(S)-4-(6-(4-(2-methoxyethyl)piperidin-1-yl)-2-phenylpyrimidine-4-carboxamido)-5-oxo-5-(4-(pentyloxycarbonyl)piperazin-1-yl)pentanoic acid]
24 | 2000 | CCCCCOC(=O)N1CCN(C(=O)[C@H](CCC(=O)O)NC(=O)c2cc(N3CCC(COCCOC)CC3)nc(-c3ccccc3)n2)CC1 [(S)-4-(6-(4-((2-methoxyethoxy)methyl)piperidin-1-yl)-2-phenylpyrimidine-4-carboxamido)-5-oxo-5-(4-(pentyloxycarbonyl)piperazin-1-yl)pentanoic acid]
25 | 770 | CCCCCOC(=O)N1CCN(C(=O)[C@H](CCC(=O)O)NC(=O)c2cc(N3CCC(CNCC)CC3)nc(-c3ccccc3)n2)CC1 [(S)-4-(6-(4-((ethylamino)methyl)piperidin-1-yl)-2-phenylpyrimidine-4-carboxamido)-5-oxo-5-(4-(pentyloxycarbonyl)piperazin-1-yl)pentanoic acid]
26 | 740 | CCCCCOC(=O)N1CCN(C(=O)[C@H](CCC(=O)O)NC(=O)c2cc(N3CCC(CNC)CC3)nc(-c3ccccc3)n2)CC1 [(S)-4-(6-(4-((methylamino)methyl)piperidin-1-yl)-2-phenylpyrimidine-4-carboxamido)-5-oxo-5-(4-(pentyloxycarbonyl)piperazin-1-yl)pentanoic acid]
27 | 490 | CCCCCOC(=O)N1CCN(C(=O)[C@H](CCC(=O)O)NC(=O)c2cc(N3CCC(CN)CC3)nc(-c3ccccc3)n2)CC1 [(S)-4-(6-(4-(aminomethyl)piperidin-1-yl)-2-phenylpyrimidine-4-carboxamido)-5-oxo-5-(4-(pentyloxycarbonyl)piperazin-1-yl)pentanoic acid]
28 | 230 | CCCCCOC(=O)N1CCN(C(=O)[C@H](CCC(=O)O)NC(=O)c2cc(N3CCC(C(=O)N4CCC4)CC3)nc(-c3ccccc3)n2)CC1 [(S)-4-(6-(4-(azetidine-1-carbonyl)piperidin-1-yl)-2-phenylpyrimidine-4-carboxamido)-5-oxo-5-(4-(pentyloxycarbonyl)piperazin-1-yl)pentanoic acid]
